Earlier results as cited in patent US20170080084A1, “OIL/SURFACTANT MIXTURES FOR SELF-EMULSIFICATION” (priority 2014, published 2017).

conditions: readily available values

Going from `CCCCCCCCCCCCOS(=O)(=O)[O-].[Na+]` [SDS] to Sorbitan monooleate, the HLB falls from 40 to 4.3.

First: polyoxyethylene (10) lauryl ether
Second: polyoxyethylene cetostearyl ether
The HLB of the first is higher: 17 for the first, 13.5 for the second.

In the case of “polyoxyethylene sorbitan monooleate [polysorbate 80]”, the HLB is given as 15.
